Data taken from publication PMC5766608, “Target engagement imaging of PARP inhibitors in small-cell lung cancer” (Nature Communications, 2018).
Where two headings read alike, the source gives them in different places.

What was measured:
[1] = tested on: PARP1/2; settings: olaparib 50 mg/kg; for Initial blocking (t = 1 h): talazoparib 0.3 mg/kg i.v., 60 min between drug and tracer
Procedure: Error bars represent the SD
All PET/CT images (n = 90) were acquired on an Inveon PET/CT (Siemens) and reconstructed scans were analyzed using the Inveon Research Workplace Software (Siemens). To acquire PET/CT images, animals were anesthetized with 2% isoflurane and positioned on the scanner bed. […] PET data were collected for 5–10 min, followed by CT.
Activity concentration was quantified by averaging the mean values taken from VOIs drawn over the entire tumor as it appeared in the CT and portrayed as a mean %ID/g ± SD.

[2] = tested on: PARP1/2; test: Ex vivo autoradiography of target engagement; settings: olaparib 50 mg/kg, talazoparib 0.3 mg/kg, 30 min prior to tracer; tumor collected 2 h post tracer
Excerpt: Sections from 3 different tumor areas from each tumor (n = 3/group) were exposed to an autoradiography plate overnight and read the next day. ImageJ was used to quantify the signal intensity of each tissue. Adjacent sections were used for PARP1 IHC and H&E staining to confirm tissue identity and PARP1 expression.

[3] = tested on: PARP; settings: cited from earlier work
[4] = tested on: PARP1/2; settings: for Blocking of [18F]PARPi tumor uptake (target engagement): 30 min before tracer, PET 2 h later
Excerpt: Fig. 7 Variable dose blocking.
The control group received no therapeutic inhibitor.

[5] = target: T1, PARP1 (Homo sapiens, UniProt P09874); test: PARP family enzyme activity inhibition screening (BPS Bioscience); type: biochemical; settings: 100 nM inhibitor
T1 construct: purchased BPS Bioscience, San Diego, CA
Procedure: (§1) Fig. 1 Properties of PARP inhibitors. a Structures of 5 clinical therapeutic PARP inhibitors and the 2 PARP imaging agents. b Heatmap visualizing enzymatic activity screening of 10 small molecules against 12 PARP enzymes at 100 nM concentration (for additional concentrations, see Supplementary Fig. 1)
(§2) Assay was performed by BPS Bioscience, San Diego, CA. 100 µM DMSO solutions of each inhibitor were provided, and the assay was conducted after dilution to 100, 50, or 10 nM. […] Data was reported by BPS as % Enzyme Activity. Triplicates were combined to get a mean ± SD, and these were grouped and plotted onto a heatmap using Prism 7.
(§3) Supplementary Figure 1 | PARP enzyme family binding assays at additional concentrations.
(§4) histone substrate and biotin-labeled NAD+ at 100 nM (Fig. 1b), 50 nM (left) and 10 nM (right) for
(§5) each inhibitor and each enzyme.

[6] = target: T2, PARP3 (Homo sapiens, UniProt Q9Y6F1); test: as above; type: biochemical; settings: 100 nM inhibitor
T2 construct: purchased BPS Bioscience, San Diego, CA
T2 sequence (Q9Y6F1 1-533): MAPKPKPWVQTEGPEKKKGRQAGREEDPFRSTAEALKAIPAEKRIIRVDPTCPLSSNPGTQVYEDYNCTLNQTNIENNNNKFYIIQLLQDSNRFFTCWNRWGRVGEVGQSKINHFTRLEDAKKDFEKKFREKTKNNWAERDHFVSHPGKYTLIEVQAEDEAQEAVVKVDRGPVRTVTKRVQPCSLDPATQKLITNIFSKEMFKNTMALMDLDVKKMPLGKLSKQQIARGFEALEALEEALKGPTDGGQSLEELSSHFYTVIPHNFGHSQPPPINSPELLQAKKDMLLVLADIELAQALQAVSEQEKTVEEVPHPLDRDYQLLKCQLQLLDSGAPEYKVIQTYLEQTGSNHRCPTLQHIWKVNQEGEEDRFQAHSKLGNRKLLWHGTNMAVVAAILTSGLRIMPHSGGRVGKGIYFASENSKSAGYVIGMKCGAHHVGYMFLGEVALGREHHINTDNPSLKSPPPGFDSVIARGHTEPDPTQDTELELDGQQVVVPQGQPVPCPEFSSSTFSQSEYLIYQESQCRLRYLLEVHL
Procedure: as §1, §2, §3, §4, §5

[7] = target: T3, PARP2 (Homo sapiens, UniProt Q9UGN5); test: PARP2 IC50 assay (BPS Bioscience, Strep-HRP, histone substrate); type: biochemical; settings: footnote a: see Supplementary Fig. 2
T3 construct: purchased BPS Bioscience, San Diego, CA
Procedure: Assays were performed by BPS Bioscience, San Diego, CA. […] Data was reported by BPS a`s % enzyme activity curve from 0.03 nM or 0.1 nM to 1000 nM.

T1 sequence (P09874 whole entry): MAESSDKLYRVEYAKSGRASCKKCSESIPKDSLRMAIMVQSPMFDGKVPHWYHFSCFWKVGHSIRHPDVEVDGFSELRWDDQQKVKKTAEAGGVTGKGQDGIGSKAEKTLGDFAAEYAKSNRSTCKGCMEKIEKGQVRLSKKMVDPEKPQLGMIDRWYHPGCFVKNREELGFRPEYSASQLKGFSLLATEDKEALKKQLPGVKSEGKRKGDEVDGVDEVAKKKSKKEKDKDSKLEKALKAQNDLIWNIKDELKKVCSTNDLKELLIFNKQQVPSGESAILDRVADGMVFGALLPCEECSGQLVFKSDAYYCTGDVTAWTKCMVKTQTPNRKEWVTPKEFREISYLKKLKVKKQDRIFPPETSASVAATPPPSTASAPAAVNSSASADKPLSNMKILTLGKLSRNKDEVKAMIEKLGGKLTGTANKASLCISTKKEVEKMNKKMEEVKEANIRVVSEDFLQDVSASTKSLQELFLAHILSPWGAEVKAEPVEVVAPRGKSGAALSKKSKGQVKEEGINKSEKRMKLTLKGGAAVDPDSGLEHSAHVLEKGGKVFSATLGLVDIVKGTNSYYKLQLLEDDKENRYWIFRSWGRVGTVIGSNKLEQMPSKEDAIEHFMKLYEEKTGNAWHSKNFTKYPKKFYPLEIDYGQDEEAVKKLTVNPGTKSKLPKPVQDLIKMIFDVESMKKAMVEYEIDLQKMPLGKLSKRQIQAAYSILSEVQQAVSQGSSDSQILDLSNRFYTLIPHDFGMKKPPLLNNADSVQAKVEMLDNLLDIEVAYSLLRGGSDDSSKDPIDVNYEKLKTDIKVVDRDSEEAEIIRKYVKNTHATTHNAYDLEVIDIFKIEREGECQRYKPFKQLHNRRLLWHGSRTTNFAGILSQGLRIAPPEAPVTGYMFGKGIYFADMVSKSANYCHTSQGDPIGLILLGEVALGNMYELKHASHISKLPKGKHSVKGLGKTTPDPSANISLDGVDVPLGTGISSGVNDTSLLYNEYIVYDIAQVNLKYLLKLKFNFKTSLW
T3 sequence (Q9UGN5 whole entry): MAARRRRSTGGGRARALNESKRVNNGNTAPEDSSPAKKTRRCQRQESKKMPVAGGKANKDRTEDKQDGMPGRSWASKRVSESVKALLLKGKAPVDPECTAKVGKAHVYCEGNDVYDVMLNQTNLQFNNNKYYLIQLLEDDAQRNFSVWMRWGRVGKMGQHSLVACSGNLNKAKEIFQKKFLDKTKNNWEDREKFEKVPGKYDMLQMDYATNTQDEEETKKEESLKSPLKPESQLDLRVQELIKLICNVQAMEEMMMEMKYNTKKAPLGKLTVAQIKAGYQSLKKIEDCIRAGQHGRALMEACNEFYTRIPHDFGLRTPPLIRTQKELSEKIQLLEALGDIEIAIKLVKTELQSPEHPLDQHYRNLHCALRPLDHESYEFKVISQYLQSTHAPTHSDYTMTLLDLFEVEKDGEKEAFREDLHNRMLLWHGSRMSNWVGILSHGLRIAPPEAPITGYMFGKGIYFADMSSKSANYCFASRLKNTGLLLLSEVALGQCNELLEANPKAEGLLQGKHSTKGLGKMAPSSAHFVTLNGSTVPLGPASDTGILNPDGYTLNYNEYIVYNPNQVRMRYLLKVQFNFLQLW

Cn1ncnc1[C@H]1c2n[nH]c(=O)c3cc(F)cc(c23)N[C@@H]1c1ccc(F)cc1 [Talazoparib, (8S,9R)-5-Fluoro-8-(4-fluorophenyl)-9-(1-methyl-1H-1,2,4-triazol-5-yl)-2,7,8,9-tetrahydro-3H-pyrido[4,3,2-de]phthalazin-3-one]
Initial blocking (t = 1 h) [1]: 56%
Initial blocking (t = 1 h) ([1]; listed as talazoparib): 56%
AUC ([1]; target engagement over 48 h, single dose, talazoparib 0.3 mg/kg): 1021 %h
t1/2 (weighted) ([1]; two phase decay fit of target engagement, talazoparib 0.3 mg/kg): 9.8 h
[18F]PARPi tumor uptake blocked (autoradiography) [2]: 45%
PARP trapping, in words [3]: most effective PARP trapping agent
Blocking of [18F]PARPi tumor uptake (target engagement) ([4]; 0.3 mg/kg i.v.): 50%
Blocking of [18F]PARPi tumor uptake (target engagement) ([4]; 0.9 mg/kg i.v.): 64%
Blocking of [18F]PARPi tumor uptake (target engagement) ([4]; 5 mg/kg i.v.): 89%
Blocking of [18F]PARPi tumor uptake (target engagement) ([4]; 15 mg/kg i.v.): 84%
50% blocking dose ([4]; single-phase decay curve fit, JHU-LX48 PDX tumor): 0.36 mg/kg

CC1=CC(C)=[N+]2C1=Cc1ccc(CCC(=O)N3CCN(C(=O)c4cc(Cc5n[nH]c(=O)c6ccccc56)ccc4F)CC3)n1[B-]2(F)F [PARPi-FL]
inhibition at 0.1 µM [5]: > 90%
inhibition at 0.1 µM [6]: ≤ 30%
IC50 [7]: 0.31 nM

O=C(c1ccc(F)cc1)N1CCN(C(=O)c2cc(Cc3n[nH]c(=O)c4ccccc34)ccc2F)CC1 [^19F-PARPi]
Inhibition of PARP1 enzyme activity [5]: > 90%
Inhibition of PARP3 enzyme activity [6]: ≤ 30%
